Source: patent US7977364B2, “Indazoles, benzisoxazoles and benzisothiazoles and their use as estrogenic agents” (Laboratoire Thermamex, priority 2004, dated 2011)
Read-outs that look alike come from different tables or passages of the source.

What was measured:
[1] = target: T1, purified full-length recombinant human ERα (Homo sapiens, UniProt P03372); experiment: Estrogen receptor α competitive radiometric binding assay ([3H]-E2)
T1 sequence (P03372 1-595): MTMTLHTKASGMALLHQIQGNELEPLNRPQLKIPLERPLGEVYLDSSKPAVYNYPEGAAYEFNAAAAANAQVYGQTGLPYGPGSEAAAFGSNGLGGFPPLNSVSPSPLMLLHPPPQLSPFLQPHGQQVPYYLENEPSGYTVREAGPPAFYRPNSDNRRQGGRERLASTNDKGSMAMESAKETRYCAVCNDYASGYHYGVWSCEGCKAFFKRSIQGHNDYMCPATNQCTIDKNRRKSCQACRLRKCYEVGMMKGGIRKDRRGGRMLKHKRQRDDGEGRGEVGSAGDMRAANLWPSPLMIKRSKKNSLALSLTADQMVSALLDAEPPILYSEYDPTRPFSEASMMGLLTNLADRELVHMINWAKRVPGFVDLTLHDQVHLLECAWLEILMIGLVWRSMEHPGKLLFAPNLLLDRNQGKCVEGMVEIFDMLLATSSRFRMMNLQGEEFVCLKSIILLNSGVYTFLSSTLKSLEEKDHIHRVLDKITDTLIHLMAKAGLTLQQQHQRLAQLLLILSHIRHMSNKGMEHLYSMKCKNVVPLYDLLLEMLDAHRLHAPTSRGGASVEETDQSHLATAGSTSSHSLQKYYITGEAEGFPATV
Description: Relative binding affinities (RBA) were determined by competitive radiometric binding assays, using purified full-length recombinant human ERα and ERβ (PanVera, Madison, Wis.). […] After shaking for a few seconds and centrifugation at 1500 g and 4° C. for 10 minutes, 150 μl/well of Optiphase ‘Super Mix’ scintillation liquid was mixed with 50 μl of supernatant of each sample and the radioactivity was measured in a MicroBeta counter (Wallac, Turku, Finland). Data were evaluated by a sigmoidal dose-response curve (Prism, GraphPad Software Inc.) to estimate the concentration of competitor at half-maximal specific binding (IC50). […] The selectivity for ERα and ERβ was obtained from the ratio R of the IC50 for ERα to the IC50 for ERβ for each test compound.

[2] = tested on: human endometrial adenocarcinoma Ishikawa cells; experiment: Estrogenic and anti-estrogenic activities in vitro: induction of alkaline phosphatase (APase) activity; type: cell-based
Outline: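 Ishikawa cells in phenol red-free DMEM with 5% charcoal-stripped dFCS; after incubation, APase measured via 5 mM p-nitrophenyl phosphate hydrolysis at pH 9.8, read at 405 nm after 15-60 min at room temperature. EC50 (estrogenic) and IC50 (anti-estrogenic) from sigmoidal dose-response curves.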

ovariectomized rats = experiment: Hot flush model in vivo: tail skin temperature, uteri and body weight
rats = experiment: Forced swimming test (antidepressant activity, immobility duration); type: in vivo, rat
Description: Antidepressant effect of estradiol was recently reported in studies using ER β KO mice model. In addition, ER β localization in dorsal raphe nucleus area in rat has been described. The gold standard test for antidepressant potency of compound consist in the forced swimming test, in this experiment antidepressants could be distinguished from psychostimulants which decreased immobility at doses which increased general activity. In order to investigate the putative antidepressant potency of the compounds reported here, the forced swimming test was performed according to the following design. The animals were housed six per cage under standard colony conditions, with a 12 h light/dark cycle and ad libitum food and water. They were allowed to acclimatize to the colony for at least 7 days prior to any experimentation. For subcutaneous administration, the compound of Example 23 was dissolved in olive oil and diluted to the desired concentration on the day of administration. For positive control, intraperitoneal (i.p.) injection of desipramine was done. Desipramine was dissolved in double-distilled water (10 mg/kg). The experiments were conducted 30 min after the positive control drug treatment (only for desipramine treatment). Other compounds, ie: estradiol and the compound of Example 23 were daily injected subcutaneously in rats, during a 7 days period. Acquisition were performed on day 8 (24 h after the last administration of items) and day 9 (48 h after estradiol or compound 23 administration), respectively. Data acquired 24 hours after the last administration consisted in the “naïve animal group”, these animals had never been previously tested in the device. Data acquired 48 hours after a last administration of compounds consisted in “trained animal group”.
On the 8th, the forced swim test was performed. This study was carried out in rats according to the methods described by Porsolt (Eur. J. Pharm., 1978). Briefly, rats were placed individually in glass cylinders (height: 40 cm, diameter: 18 cm) containing 25 cm of water at 25° C. Ten minutes later, rats were removed and dried before being returned to their home cages. The animals were replaced in the cylinders 24 h later, and the procedure was repeated, and a 10-min observation period was recorded.

Prepubescent female rats = experiment: Estrogenic / uterotrophic activity in vivo (uterus wet weight); parameters: species or system rat; details: for change in vivo at 3 mg: orally 3 mg/rat/day for 3 days
Outline: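 Prepubescent female rats dosed orally for 3 days at 3 mg/rat/day, or at 0.3, 1, 3 or 10 mg/rat/day. Uteri removed the following day and wet-weighed; values given as % stimulation of uterine weight over vehicle.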

**Q.** With `Oc1ccc2c(C3CCCC3)n[nH]c2c1` [Ex 23, 3-cyclopentyl-1H-indazol-6-ol] as the compound, how does the IC50 [1] read?
**A.** 1.33 ± 0.268 µM

**Q.** And the “RBA (%) Mean ± S.E.M, ER α” value ([1]; ratio of IC50s of E2 and competitor, E2 set at 100%)?
**A.** 0.2 ± 0.05%

**Q.** What about the EC50 ([2]; Homo sapiens, Ishikawa, 96 h, compound alone, four days, ND = not detected, read-out: Estrogenic activity EC50 (nM) ± S.E.M) of the same compound?
**A.** 1700 ± 168 nM

**Q.** What about the “estrogenic effect in alkaline phosphatase activity in the Ishikawa cell model” value ([2]; in words) of the same compound?
**A.** weak estrogenic effect

**Q.** And the “TST Variation day 1 vs day 0” value (ovariectomized rats; 0.3 mg/rat/day)?
**A.** −0.8 C. °

**Q.** And the “TST Variation day 4 vs day 0” value (ovariectomized rats; 0.3 mg/rat/day)?
**A.** −2.1 C. °

**Q.** What about the “TST Variation day 7 vs day 0” value (ovariectomized rats; 0.3 mg/rat/day) of the same compound?
**A.** −1.9 C. °

**Q.** What about the “tail skin temperature of ovariectomized rat” value (ovariectomized rats; in words) of the same compound?
**A.** decreased tail skin temperature

**Q.** What about the “immobility duration, Naïve animals” value (rats; 2.8 mg/rat/day s.c. 7 days, 24 h after last administration, 10 minutes test) of the same compound?
**A.** 45.2 ± 15.6 s

**Q.** What about the “immobility duration, Trained animals” value (rats; 2.8 mg/rat/day s.c. 7 days, 48 h after last administration, 10 minutes test) of the same compound?
**A.** 160.7 ± 44.1 s

**Q.** What about the “antidepressor activity, animals first-in-the-test” value (rats; 24 h after administration, in words) of the same compound?
**A.** exhibited a antidepressor activity

**Q.** And the “antidepressor potency, trained animal group” value (rats; 48 h after administration, in words)?
**A.** disappeared

**Q.** What about the change in vivo at 3 mg (Prepubescent female rats; Rattus norvegicus, po, 72 h, Table 4, read-out: % stimulation vs vehicle (uterus weight)) of the same compound?
**A.** 12%

**Q.** And the change in vivo at 0.3 mg (Prepubescent female rats; Rattus norvegicus, po, 72 h, Table 5, orally 0.3 mg/rat/day for 3 days, read-out: % stimulation vs vehicle (uterus weight))?
**A.** -13%

**Q.** What about the change in vivo at 1 mg (Prepubescent female rats; Rattus norvegicus, po, 72 h, Table 5, orally 1 mg/rat/day for 3 days, read-out: % stimulation vs vehicle (uterus weight)) of the same compound?
**A.** -5%

**Q.** And the change in vivo at 3 mg (Prepubescent female rats; Rattus norvegicus, po, 72 h, Table 5, read-out: % stimulation vs vehicle (uterus weight))?
**A.** -4%

**Q.** What about the change in vivo at 10 mg (Prepubescent female rats; Rattus norvegicus, po, 72 h, Table 5, orally 10 mg/rat/day for 3 days, read-out: % stimulation vs vehicle (uterus weight)) of the same compound?
**A.** 20%

**Q.** What about the “in vivo estrogenic activity after oral administration” value (Prepubescent female rats; in words) of the same compound?
**A.** weak in vivo estrogenic activity

**Q.** What about the “uterotrophicity after oral administration” value (Prepubescent female rats; up to a 3 mg/animal/day dosage, in words) of the same compound?
**A.** lack of uterotrophicity
